Reference: ChEMBL document CHEMBL1145885, “Synthesis and GABA(A) receptor activity of a 6,19-oxido analogue of pregnanolone” (Bioorg Med Chem Lett, 2003)
The source made the active and inactive calls. The calls are words filed in the database; no cut-off is given here.

How the values were obtained:
Cricetinae gen. sp. = test: Compound was tested for reduction of 3-mercaptopropionic acid induced seizures in hamsters at 20 mg/kg; Active; type: functional, organism-based; design: dose 20 mg/kg; conditions: Cricetulus griseus
[1] = target: GABA-A receptor; anion channel (Homo sapiens) (UniProt P14867+P47870+P18507+P28472+P48169+Q99928+Q9UN88+P34903+O00591+O14764+Q8N1C3+P18505+P78334+P47869+P31644+Q16445); test: GABA-induced 36Cl- influx in hamster cerebral cortex synaptoneurosomes at 0.1 uM; type: functional, tissue-based; conditions: Cricetulus griseus

Activity [1]: Active
SMILES: CC(=O)[C@H]1CCC2C3CC4OC[C@@]5(CC[C@@H](O)C=C45)C3CC[C@@]21C (some centres not stated)
Activity (Cricetinae gen. sp.): Active
